Reference: PMC8165160, “Substrate Specificities and Inhibition Pattern of the Solute Carrier Family 10 Members NTCP, ASBT and SOAT” (Frontiers in Molecular Biosciences, 2021)
Structures can show the parent of a compound that is named as a salt.

Key:
NTCP [1] = molecular target: T1, NTCP (Homo sapiens, UniProt Q14973); assay: Substrate screening: sodium-dependent uptake of radiolabeled compounds in NTCP-HEK293 cells; type: cell-based; design: The full-length open reading frames of NTCP, ASBT, and SOAT were cloned; expressed in transfected cells; host or cells: Flp-In T-REX HEK293 (NTCP-HEK293), tetracycline-induced; conditions: NTCP-HEK293, vs sodium-free control
T1 sequence (Q14973 1-349): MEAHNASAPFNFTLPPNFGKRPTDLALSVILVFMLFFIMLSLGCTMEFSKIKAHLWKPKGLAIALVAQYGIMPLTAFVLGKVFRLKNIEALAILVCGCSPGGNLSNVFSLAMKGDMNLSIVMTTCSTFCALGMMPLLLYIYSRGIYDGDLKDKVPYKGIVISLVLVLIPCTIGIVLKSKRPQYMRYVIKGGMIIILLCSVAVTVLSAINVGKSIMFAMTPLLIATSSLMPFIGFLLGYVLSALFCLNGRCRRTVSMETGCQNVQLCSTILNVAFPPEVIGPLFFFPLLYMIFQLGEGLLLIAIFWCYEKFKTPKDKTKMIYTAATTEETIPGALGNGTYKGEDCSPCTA
Description: Stably SLC10 transporter transfected NTCP-HEK293, ASBT-HEK293, SOAT-HEK293 cells and the HEK293-FlpIn maternal cell line were seeded on 24-well plates (if not stated otherwise for individual assays). Well plates were coated with poly-D-lysine prior to seeding of 125,000 cells per well. Cells were grown with 1 ml of standard medium per well with or without tetracycline ([…]) for 72 h to induce carrier expression before respective assays were started. HEK293-FlpIn cells were cultivated with standard medium and served as control.
(§1) Uptake experiments were initiated by replacing the preincubation buffer by 500 μL transport buffer containing the radiolabeled test compound and were performed at 37°C. Transport was terminated by removing the transport buffer and washing five-times with ice-cold PBS. Cell monolayers were lysed in 1 N NaOH with 0.1% SDS and the cell-associated radioactivity was determined by liquid scintillation counting.
FIGURE 1 Comparative substrate screening for bile acids and sulfated steroids in NTCP-, ASBT-, and SOAT-HEK293 cells. Transport assays were performed with the indicated substrates in NTCP-HEK293, ABST-HEK293, SOAT-HEK293, and HEK293-FlpIn cells. Cells were washed and equilibrated with Na^+-containing transport buffer (filled bars) or with Na^+-free transport buffer (open bars) at 37°C. For uptake, cells were incubated with radiolabeled steroid compounds at a final concentration of 200 nM in Na^+-containing or Na^+-free transport buffer for 10 min. Radiolabeled bile acids were used at 1 µM concentrations and transport was analyzed over 30 min. HEK293-FlpIn cells served as additional controls. After the indicated time intervals, cells were washed with ice-cold PBS, lysed and subjected to liquid scintillation counting. […] 3-OH, trihydroxylated BAs; 2-OH, dihydroxylated BAs; 1-OH, monohydroxylated BAs.

NTCP [2] = molecular target: T1, NTCP; assay: Transport kinetics (concentration-dependent uptake) in NTCP-HEK293 cells; type: cell-based; design: The full-length open reading frames of NTCP, ASBT, and SOAT were cloned; expressed in transfected cells; host or cells: Flp-In T-REX HEK293 (NTCP-HEK293), tetracycline-induced; conditions: uptake via NTCP, 1 min, 37°C
Description: as §1
FIGURE 2 NTCP, ASBT, and SOAT transport kinetics. Concentration-dependent uptake was analyzed in NTCP-HEK293, ASBT-HEK293, and SOAT-HEK293 cells for the indicated substrates at increasing substrate concentrations. Stably transfected HEK293 cells were pretreated with 1 μg/ml tetracycline to induce carrier expression. HEK293-FlpIn cells were used as control. Uptake was analyzed for 1 min at 37°C. Afterward, the medium was removed and each cell monolayer was washed and processed to determine the protein content and cell-associated radioactivity. Specific uptake was calculated by subtracting non-specific uptake of the HEK293-FlpIn control cells (open squares) from uptake into carrier-overexpressing HEK293 cells (filled squares) and is shown by broken lines. The values represent means ± SD of duplicate experiments, each with triplicate determinations (n = 6).

[3] = radiolabeled bile acids 1 µM, 30 min

Row | SMILES | Transport activity grading NTCP (mean uptake) (NTCP [1]; radiolabeled steroid compounds 200 nM, 10 min) | Apparent K m (NTCP [2]) | V max (NTCP [2]) | Transport activity grading NTCP (mean uptake) (NTCP [1]; [3])
1 | C[C@]12CC[C@H](OS(=O)(=O)O)CC1=CC[C@@H]1[C@@H]2CC[C@]2(C)C(=O)CC[C@@H]12 [DHEAS, Dehydroepiandrosterone sulfate] | + (Mean uptake “+” for values below 10) | 56.1 ± 8.0 µM | 2198 ± 101.7 pmol/mg protein/min | –
2 | C[C@H](CCC(=O)NCCS(=O)(=O)O)[C@H]1CC[C@H]2[C@@H]3[C@H](O)C[C@@H]4C[C@H](O)CC[C@]4(C)[C@H]3C[C@H](O)[C@]12C [Taurocholic acid] | – | 13.1 ± 0.8 µM | 2395 ± 59 pmol/mg protein/min | +++ (“+++” for values above 1000 pmol/mg protein/30 min)
3 | C[C@H](CCC(=O)NCCS(=O)(=O)O)[C@H]1CC[C@H]2[C@@H]3CC[C@@H]4C[C@H](O)CC[C@]4(C)[C@H]3CC[C@]12C [Taurolithocholic acid] | – | 18.4 ± 2.3 µM | 5915 ± 189 pmol/mg protein/min | +++ (“+++” for values above 1000 pmol/mg protein/30 min)
